Assay: xn = mol fraction of the nth substance listed
Conditions: Fluid (supercritical or subcritical phases), vibrating tube

CCCCCO [pentan-1-ol] + O=C=O
Conditions | mass density [kg/m3]
352.79 K, 11040 kPa, x2 = 0.4651 | 785.81
352.79 K, 12030 kPa, x2 = 0.4651 | 787.74
352.79 K, 13014 kPa, x2 = 0.4651 | 789.67
352.79 K, 13996 kPa, x2 = 0.4651 | 791.51
352.79 K, 15009 kPa, x2 = 0.4651 | 793.37
352.79 K, 16021 kPa, x2 = 0.4651 | 795.22
352.79 K, 17023 kPa, x2 = 0.4651 | 797.01
352.79 K, 18036 kPa, x2 = 0.4651 | 798.78
352.79 K, 19033 kPa, x2 = 0.4651 | 800.49
352.79 K, 20034 kPa, x2 = 0.4651 | 802.15
352.79 K, 21019 kPa, x2 = 0.4651 | 803.78
352.79 K, 22005 kPa, x2 = 0.4651 | 805.38
352.79 K, 23048 kPa, x2 = 0.4651 | 807.02
352.79 K, 24005 kPa, x2 = 0.4651 | 808.54
352.8 K, 9062 kPa, x2 = 0.3624 | 787.17
352.8 K, 10017 kPa, x2 = 0.3624 | 788.44
352.8 K, 10962 kPa, x2 = 0.3624 | 789.67
352.8 K, 12014 kPa, x2 = 0.3624 | 790.98
352.8 K, 13057 kPa, x2 = 0.3624 | 792.31
352.8 K, 13992 kPa, x2 = 0.3624 | 793.46
352.8 K, 14992 kPa, x2 = 0.3624 | 794.66
352.8 K, 16050 kPa, x2 = 0.3624 | 795.91
352.8 K, 16062 kPa, x2 = 0.8573 | 704.48
352.8 K, 17018 kPa, x2 = 0.3624 | 797.04
352.8 K, 17045 kPa, x2 = 0.8573 | 717.71
352.8 K, 17979 kPa, x2 = 0.3624 | 798.17
352.8 K, 18036 kPa, x2 = 0.8573 | 728.91
352.8 K, 19024 kPa, x2 = 0.8573 | 738.63
352.8 K, 19050 kPa, x2 = 0.3624 | 799.37
352.8 K, 20029 kPa, x2 = 0.3624 | 800.46
352.8 K, 20047 kPa, x2 = 0.8573 | 747.71
352.8 K, 21012 kPa, x2 = 0.8573 | 755.39
352.8 K, 21035 kPa, x2 = 0.3624 | 801.59
352.8 K, 21985 kPa, x2 = 0.3624 | 802.63
352.8 K, 22013 kPa, x2 = 0.8573 | 762.78
352.8 K, 23021 kPa, x2 = 0.3624 | 803.75
352.8 K, 23034 kPa, x2 = 0.8573 | 769.78
352.8 K, 24022 kPa, x2 = 0.3624 | 804.82
352.8 K, 24038 kPa, x2 = 0.8573 | 776.16
352.8 K, 25026 kPa, x2 = 0.3624 | 805.9
352.8 K, 25052 kPa, x2 = 0.8573 | 782.21
352.81 K, 3095 kPa, x2 = 0.0816 | 772.79
352.81 K, 4022 kPa, x2 = 0.0816 | 773.74
352.81 K, 5003 kPa, x2 = 0.0816 | 774.75
352.81 K, 5979 kPa, x2 = 0.0816 | 775.73
352.81 K, 7007 kPa, x2 = 0.0816 | 776.72
352.81 K, 7981 kPa, x2 = 0.0816 | 777.7
352.81 K, 9053 kPa, x2 = 0.0816 | 778.72
352.81 K, 10025 kPa, x2 = 0.0816 | 779.66
352.81 K, 11031 kPa, x2 = 0.0816 | 780.6
352.81 K, 11999 kPa, x2 = 0.0816 | 781.51
352.81 K, 13023 kPa, x2 = 0.0816 | 782.45
352.81 K, 14012 kPa, x2 = 0.0816 | 783.34
352.81 K, 15005 kPa, x2 = 0.7274 | 763.67
352.81 K, 15006 kPa, x2 = 0.0816 | 784.24
352.81 K, 15032 kPa, x2 = 0.9216 | 609.93
352.81 K, 15993 kPa, x2 = 0.0816 | 785.1
352.81 K, 16001 kPa, x2 = 0.9216 | 637.91
352.81 K, 16021 kPa, x2 = 0.7274 | 769.33
352.81 K, 17044 kPa, x2 = 0.9216 | 660.91
352.81 K, 17045 kPa, x2 = 0.7274 | 774.53
352.81 K, 17064 kPa, x2 = 0.0816 | 786
352.81 K, 18013 kPa, x2 = 0.0816 | 786.86
352.81 K, 18017 kPa, x2 = 0.9216 | 678.45
352.81 K, 18023 kPa, x2 = 0.7274 | 779.16
352.81 K, 18992 kPa, x2 = 0.0816 | 787.69
352.81 K, 19030 kPa, x2 = 0.9216 | 693.91
352.81 K, 19050 kPa, x2 = 0.7274 | 783.67
352.81 K, 19999 kPa, x2 = 0.7274 | 787.59
352.81 K, 20017 kPa, x2 = 0.9216 | 707.27
352.81 K, 20032 kPa, x2 = 0.0816 | 788.58
352.81 K, 20998 kPa, x2 = 0.0816 | 789.4
352.81 K, 21041 kPa, x2 = 0.9216 | 719.46
352.81 K, 21063 kPa, x2 = 0.7274 | 791.77
352.81 K, 22012 kPa, x2 = 0.0816 | 790.22
352.81 K, 22020 kPa, x2 = 0.7274 | 795.33
352.81 K, 22043 kPa, x2 = 0.9216 | 730.24
352.81 K, 23032 kPa, x2 = 0.9216 | 740.03
352.81 K, 23038 kPa, x2 = 0.7274 | 798.99
352.81 K, 23043 kPa, x2 = 0.0816 | 791.09
352.81 K, 23982 kPa, x2 = 0.7274 | 802.22
352.81 K, 24064 kPa, x2 = 0.0816 | 791.93
352.81 K, 25028 kPa, x2 = 0.0816 | 792.72
352.81 K, 25068 kPa, x2 = 0.7274 | 805.8
352.86 K, 7013 kPa, x2 = 0.1347 | 777.29
352.86 K, 8003 kPa, x2 = 0.1347 | 778.24
352.86 K, 9042 kPa, x2 = 0.1347 | 779.29
352.86 K, 9997 kPa, x2 = 0.1347 | 780.21
352.86 K, 11043 kPa, x2 = 0.1347 | 781.23
352.86 K, 12025 kPa, x2 = 0.1347 | 782.2
352.86 K, 13003 kPa, x2 = 0.1347 | 783.16
352.86 K, 14006 kPa, x2 = 0.1347 | 784.13
352.86 K, 15015 kPa, x2 = 0.1347 | 785.07
352.86 K, 16005 kPa, x2 = 0.1347 | 786.01
352.86 K, 17031 kPa, x2 = 0.1347 | 786.94
352.86 K, 18022 kPa, x2 = 0.1347 | 787.86
352.86 K, 19009 kPa, x2 = 0.1347 | 788.74
352.86 K, 20022 kPa, x2 = 0.1347 | 789.63
352.86 K, 21024 kPa, x2 = 0.1347 | 790.52
352.86 K, 21995 kPa, x2 = 0.1347 | 791.37
352.86 K, 23030 kPa, x2 = 0.1347 | 792.28
352.86 K, 24029 kPa, x2 = 0.1347 | 793.15
352.86 K, 25004 kPa, x2 = 0.1347 | 793.98
352.88 K, 14062 kPa, x2 = 0.6054 | 787.97
352.88 K, 15034 kPa, x2 = 0.6054 | 790.53
352.88 K, 16029 kPa, x2 = 0.6054 | 793.07
352.88 K, 17048 kPa, x2 = 0.6054 | 795.6
352.88 K, 18046 kPa, x2 = 0.6054 | 798.05
352.88 K, 19026 kPa, x2 = 0.6054 | 800.32
352.88 K, 20030 kPa, x2 = 0.6054 | 802.6
352.88 K, 21058 kPa, x2 = 0.6054 | 804.93
352.88 K, 22056 kPa, x2 = 0.6054 | 807.03
352.88 K, 23049 kPa, x2 = 0.6054 | 809.11
352.88 K, 24065 kPa, x2 = 0.6054 | 811.21
352.88 K, 25092 kPa, x2 = 0.6054 | 813.29
362.58 K, 20013 kPa, x2 = 0.9757 | 578.28
362.58 K, 21042 kPa, x2 = 0.9757 | 600.7
362.58 K, 22020 kPa, x2 = 0.9757 | 619.68
362.58 K, 23010 kPa, x2 = 0.9757 | 637.03
362.58 K, 24034 kPa, x2 = 0.9757 | 653.33
362.58 K, 25047 kPa, x2 = 0.9757 | 667.94
362.59 K, 517 kPa, x2 = 0 | 759.7
362.59 K, 1023 kPa, x2 = 0 | 760.25
362.59 K, 2005 kPa, x2 = 0 | 761.26

Source: the NIST ThermoML archive (doi:10.1016/j.jct.2007.07.005)
